Data as given in patent publication US20130345243A1, “1H-PYROLLO[3,2-D]PYRIMIDINEDIONE DERIVATIVES” (GLAXOSMITHKLINE LLC, priority 2011, published 2013).

Tests used:
ob/ob and db/db mice = details: 8 day administration; cited from earlier work
Human recombinant AMPK = assay: AMPK Enzymatic Assay (Z'Lyte FRET); format: biochemical; details: ATP 100 μM, peptide 2 μM, means of at least 2 independent experiments
Description: Human recombinant AMPK (Invitrogen #PV4673 & #PV4675) is used in a FRET assay format (Z'Lyte—Invitrogen). Assay conditions are as follow: ATP 100 μM, peptide (Invitrogen # PR8650) 2 μM, 1% final DMSO in Z'Lyte kinase buffer. Reaction is initiated by addition of 0.2-0.8 ng of AMPK and incubated for 1-hour @ 30° C. A further 1-hour incubation @ 30° C. with the development reagent (Invitrogen # PR5194) is performed. FRET signal is then measured and converted to “% peptide phosphorylation” according to Z'Lyte given calculation procedure. Evaluation of compounds is carried out using concentration-response curves. Final data are expressed in “% activation” calculating the ratio of “% peptide phosphorylation” between compound-condition and basal-condition. Alternatively pEC200 (−Log(compound concentration leading to a 2-fold AMPK activity increase)) is produced through fitting of the concentration-response curves. All data are means of at least 2 independent experiments.

pEC50 (Human recombinant AMPK)	SMILES	reduces blood glucose (ob/ob and db/db mice)
–	NC(=O)c1ncn([C@@H]2O[C@H](CO)[C@@H](O)[C@H]2O)c1N [AICAR]	35%
6.1	Nc1nc(-c2ccc(-n3c(Cl)cc4[nH]c(=O)n(-c5ccccc5F)c(=O)c43)cc2)cs1 [Example 12, 5-[4-(2-Amino-1,3-thiazol-4-yl)phenyl]-6-chloro-3-(2-fluorophenyl)-1H-pyrrolo[3,2-d]pyrimidine-2,4(3H,5H)-dione]	–
6.2	Cl.Nc1nc(-c2ccc(-n3c(Cl)cc4[nH]c(=O)n(-c5cccc(C(=O)O)c5)c(=O)c43)cc2)cs1 [Example 11, 3-(5-(4-(2-Aminothiazol-4-yl)phenyl)-6-chloro-2,4-dioxo-1H-pyrrolo[3,2-d]pyrimidin-3(2H,4H,5H)-yl)benzoic acid hydrochloride]	–
